Assay results: US10278950B2, “Therapeutic agents containing cannabis flavonoid derivative for ocular disorders” (priority 2015, dated 2019)

Molecular target: T1, BIKE (BMP2K) kinase (Homo sapiens, UniProt Q9NSY1)
T1 construct: made in house
Test: Kinase inhibition assay (competition binding assay)
Conditions: qualitative statement; dose response curve only in FIG. 3, no values given
Method: Cannabis flavonoids and their analogs were subjected to kinase inhibition assay. The compounds were first screened at a single concentration of 10 μM in the primary assay. Compounds inhibiting at least 70% of specific kinases were subjected to further screening to determine kd values. To determine the kd values, competition binding assays were established, authenticated and executed as described previously (Fabian et al., 2005, Karaman et al., 2008). For most assays, kinases were fused to T7 phage strains (Fabian et al. 2005) and for the other assays, kinases were produced in HEK-293 cells after which they were tagged with DNA for quantitative PCR detection (data not shown). In general, full-length constructs were used for small, single domain kinases, and catalytic domain constructs for large multi-domain kinases. The binding assays utilized streptavidin-coated magnetic beads treated with biotinylated small molecule ligands for 30 minutes at room temperature which generated affinity resins for the kinase assays. The liganded beads were blocked with excess biotin and washed with blocking buffer (SeaBlock (Pierce), 1% BSA, 0.05% Tween 20, 1 mM DTT) to remove unbound ligand and to reduce non-specific phage binding. Binding reactions were assembled by combining kinases, liganded affinity beads, and test compounds in 1× binding buffer (20% SeaBlock, 0.17×PBS, 0.05% Tween 20, 6 mM DTT). Test compounds were prepared as 40× stocks in 100% DMSO and diluted directly into the assay (Final DMSO concentration=2.5%). All reactions were performed in polypropylene 384-well plates in a final volume of 0.04 ml. The assay plates were incubated at room temperature with shaking for 1 hour and the affinity beads were washed with wash buffer (1×PBS, 0.05% Tween 20). The beads were then re-suspended in elution buffer (1×PBS, 0.05% Tween 20, 0.5 μM non-biotinylated affinity ligand) and incubated at room temperature with shaking for 30 minutes. The kinase concentration in the eluates was measured by quantitative PCR. Kd values were determined using a standard dose response curve using the hill equation. Curves were fitted using a non-linear least square fit with the Levenberg-Marquardt algorithm.

T1 sequence (Q9NSY1 whole entry): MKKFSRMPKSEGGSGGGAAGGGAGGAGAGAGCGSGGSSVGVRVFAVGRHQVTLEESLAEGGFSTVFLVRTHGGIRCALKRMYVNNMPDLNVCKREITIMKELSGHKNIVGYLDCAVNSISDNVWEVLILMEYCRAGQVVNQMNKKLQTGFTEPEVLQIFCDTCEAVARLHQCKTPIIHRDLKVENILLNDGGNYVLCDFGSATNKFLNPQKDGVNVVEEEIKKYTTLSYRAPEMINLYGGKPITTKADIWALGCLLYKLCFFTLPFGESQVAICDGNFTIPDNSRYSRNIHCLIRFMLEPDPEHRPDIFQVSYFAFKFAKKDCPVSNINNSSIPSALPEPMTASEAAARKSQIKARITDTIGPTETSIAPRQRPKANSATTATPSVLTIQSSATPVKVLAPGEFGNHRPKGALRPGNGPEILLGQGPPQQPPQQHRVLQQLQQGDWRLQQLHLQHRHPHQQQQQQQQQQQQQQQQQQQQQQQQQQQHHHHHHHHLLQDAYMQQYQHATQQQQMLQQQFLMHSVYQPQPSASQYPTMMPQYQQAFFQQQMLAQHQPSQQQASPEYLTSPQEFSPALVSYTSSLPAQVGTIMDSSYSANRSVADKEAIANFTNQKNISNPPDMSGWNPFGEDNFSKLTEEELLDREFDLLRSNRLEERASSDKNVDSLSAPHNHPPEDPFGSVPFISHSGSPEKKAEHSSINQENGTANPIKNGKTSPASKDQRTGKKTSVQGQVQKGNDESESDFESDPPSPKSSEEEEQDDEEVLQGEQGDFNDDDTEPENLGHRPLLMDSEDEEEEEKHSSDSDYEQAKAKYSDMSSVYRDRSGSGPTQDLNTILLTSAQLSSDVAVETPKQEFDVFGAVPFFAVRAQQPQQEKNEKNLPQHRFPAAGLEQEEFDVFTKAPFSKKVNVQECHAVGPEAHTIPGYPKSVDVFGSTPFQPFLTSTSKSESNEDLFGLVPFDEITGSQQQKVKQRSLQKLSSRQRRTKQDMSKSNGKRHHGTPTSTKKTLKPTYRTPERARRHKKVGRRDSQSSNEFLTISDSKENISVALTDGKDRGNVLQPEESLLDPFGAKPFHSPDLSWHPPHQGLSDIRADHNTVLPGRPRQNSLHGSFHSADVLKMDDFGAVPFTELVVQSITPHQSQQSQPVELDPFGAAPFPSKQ

COc1cc(-c2cc(=O)c3c(O)cc(O)c(C/C=C(\C)CCC=C(C)C)c3o2)ccc1O [cannflavin C]
ability to inhibit the BMP2K kinase: demonstrated ability to inhibit

COc1cc(-c2cc(=O)c3c(O)cc(O)c(CC=C(C)C)c3o2)ccc1O [isocannflavin B]
ability to inhibit the BMP2K kinase: demonstrated ability to inhibit

COc1cc(-c2cc(=O)c3c(O)c(CC=C(C)C)c(O)cc3o2)ccc1O [cannflavin B]
ability to inhibit the BMP2K kinase: demonstrated ability to inhibit

COc1cc(-c2cc(=O)c3c(O)c(C/C=C(\C)CCC=C(C)C)c(O)cc3o2)ccc1O [cannflavin A]
ability to inhibit the BMP2K kinase: demonstrated ability to inhibit
